Source: US6593365B1, “Diflunisal esters and related compounds” (The University of Queensland, priority 1997, dated 2003)
Where “and” joins values, the source holds several entries; their conditions need not be identical. Identical values can stand only once. Like-named read-outs stand apart in the source and are kept apart here.

Experiments:
[1] = In vitro non-enzymatic hydrolysis in Krebs-Henseleit buffer; format: physicochemical; details: for Hydrolysis rate constant (k): pH 7.4, 25° C., n=5; for half-life: pH 7.4
Protocol: These experiments were carried out both in Krebs-Henseleit buffer containing either no protein or 2% w/v BSA (bovine serum albumin, fraction V, Sigma) at pH 7.4 and 25±1° C.
Solutions of the derivatives in Krebs buffer (10 mL) was prepared in siliconised glass tubes. Each solution was sonicated for 5 minutes and centrifuged for 5 minutes (3000 g) at 25° C. to ensure maximum dissolution and to sediment any undissolved precipitate. About 7.5 mL of the supernatant was then transferred to a clean siliconised test tube and a 100 μL aliquot was removed and assayed. […] The rate of non-enzymatic hydrolysis (k) for each derivative was then estimated using the following equation: […]
where C1 is the concentration of the ester at any time (t), and C0 is the concentration of the ester at time zero. The half-life (t½) was determined using the formula: […]

[2] = system: human platelet rich plasma; assay: Platelet aggregation induced by arachidonic acid; format: cell-based; details: compound 600 µM, 37° C., arachidonic acid 200 µM
Protocol: Platelet aggregation studies were carried out using a single channel Lumiaggregometer (Chrono-Log Company, Haverton, Pa.) at 37° C. using human platelet-rich and platelet-poor plasma. Platelet-rich plasma (PRP) with a platelet concentration of […] (measured with a Coulter counter) was prepared by centrifuging 3.8% citrated […] (1:9) at 1,500 rpm using a (Beckman) benchtop centrifuge at room temperature for 15 minutes. Platelet-poor plasma (PPP) was prepared by further centrifuging residual blood from platelet-rich plasma at 3,000 rpm for 30 minutes. Platelet-poor plasma was also confirmed b y Coulter counting for platelet content.
Platelet aggregation studies were preceded by pipetting 0.4 mL platelet-rich plasma into a stirred aggregometer tube and calibrate to 90% of recorder. Platelet-poor plasma was set to calibrate at 10% of recorder. Platelet aggregation was initiated by the addition of a arachidonic acid (Sigma) or ADP (Sigma).
10 mM solutions of each compound (TABLE 6) were prepared in 1 mL of normal saline solution (containing 4% BSA) before use. An aliquot (400 μL) of platelet-rich plasma was pipetted into a stirred aggregometer tube at 37° C. and 30 μL of test sample added simultaneously. This mixture was preincubated for varying period (3 to 45 minutes), then arachidonic acid (AA) was added (final conc.=200 μM) to initiate platelet aggregation. If no aggregation occurred, 20 μM ADP was added to confirm the vitality of the platelets (if the platelets are vital, ADP will induce this AA-test sample-plasma mixture to aggregate). This procedure is necessary to investigate whether the non-aggregation phenomenon is due to drug inhibition or simply due to inviable platelets (unable to respond to AA). The degree of aggregation was measure by calculating the area under the turbidimetric response curve (AUC).

[3] = Intrinsic (maximum) solubility in water at pH 1.5; format: physicochemical; details: 25 °C, pH 1.5, simulated gastric fluid
Protocol: The pH conditions were chosen to ensure that the solubility of the unionised species was estimated. […] Lea & Febiger/Philadelphia. […] […] The solvent (9.9 mL) was then added to the test tube. […] The test tube was sonicated for 15 minutes and centrifuged for 10 minutes (3000 g at 25° C.). An aliquot was filtered (Minisart 0.45 μm filter, Satorius) and diluted with HPLC mobile phase, then assayed. The tube was stored carefully in a 25° C. water bath after sampling and the remaining suspension was again sonicated and the process repeated 7 times at four hourly intervals. In these assays, standard curves were prepared by directly dissolving the esters in mobile phase. Concentrations for standard curves ranged from 1-50 μg/mL for all compounds. Furthermore, a manual injector (Waters Model U6K) was used (20 μL sample loop) which ensured that 20 μL was consistently injected onto the column and precluded the need for an internal standard.

[4] = target: T1, BSA (bovine serum albumin) (Bos taurus, UniProt P02769); assay: Protein binding by ultrafiltration in 2% BSA Krebs buffer; format: in vitro ADME; details: 2% BSA Krebs-Henseleit buffer pH 7.4, 37° C.; slope of Scatchard plot
T1 construct: BSA (bovine serum albumin, fraction V, Sigma); purchased Sigma; host or cells: bovine serum (fraction V)
T1 sequence (P02769 25-607): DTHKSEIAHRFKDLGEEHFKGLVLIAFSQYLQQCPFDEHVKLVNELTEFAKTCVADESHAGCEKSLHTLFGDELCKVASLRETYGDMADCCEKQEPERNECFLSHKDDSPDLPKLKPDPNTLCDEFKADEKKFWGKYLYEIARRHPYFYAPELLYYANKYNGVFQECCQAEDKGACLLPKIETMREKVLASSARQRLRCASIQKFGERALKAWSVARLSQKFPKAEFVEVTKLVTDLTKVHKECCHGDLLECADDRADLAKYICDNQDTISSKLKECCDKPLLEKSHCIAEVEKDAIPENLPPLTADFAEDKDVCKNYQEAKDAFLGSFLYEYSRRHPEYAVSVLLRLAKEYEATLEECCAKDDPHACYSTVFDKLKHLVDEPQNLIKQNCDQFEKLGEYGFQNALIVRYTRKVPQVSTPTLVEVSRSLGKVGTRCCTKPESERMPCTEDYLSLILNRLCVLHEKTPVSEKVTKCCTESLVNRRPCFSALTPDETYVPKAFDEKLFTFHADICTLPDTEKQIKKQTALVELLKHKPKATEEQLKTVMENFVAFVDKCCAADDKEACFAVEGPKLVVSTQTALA
Protocol: These experiments were carried out in Krebs-Henseleit buffer containing 2% w/v BSA (pH 7.4) and incubated at 37° C. for 30 minutes.
A known concentration of the ethanolic (≲1%) aspirin analogue or diflunisal ester stock solution was added to the 2% BSA Krebs solution to make final concentrations of 125 μM, 250 μM and 500 μM.
The unbound fraction (fu) of parent drug and its hydrolysis product were investigated using ultra-filtration: A 1.0 mL aliquot sample (in triplicate) was placed in a ultrafiltration tube (MPS-1, micro-partition system, Amicon) and centrifuged at 3000 g for 10 minutes. The ultra-filtrate was then assayed for parent drug and its hydrolysis product by HPLC.
To eliminate possible errors caused by hydrolysis, identical samples were placed in normal tubes and subjected to the same procedure. This control group (also in triplicate) was used to adjust for the percentage of hydrolysis in the ultra-filtrate under the experimental conditions.
The fu was determined as the ratio of the free concentration to total concentration of solutes. The binding constant (K) was determined from the slope of a Scatchard plot using following equation:
[Db]/[D]=−K[Db]vK[Pt] (3)
where [Db] is the concentration of bound drug, [D] is the concentration of drug, [Pt] is the concentration of total protein, and v is the number of independent binding sites available. This equation is plotted as the ratio [Db]/[D] versus [Db] and in this way the binding constant (K) is determined from the slope while vK[Pt] is determined from the intercept (Martin, 1983).

- Hydrolysis rate constant (k) ([1]; Krebs-Henseleit buffer 0% BSA, U = Undetectable): 0.0051 ± 0.0031 hour^1
- Hydrolysis rate constant (k) ([1]; Krebs-Henseleit buffer 2% BSA): 0.0010 ± 0.0004 hour^1
- half-life ([1]; Krebs-Henseleit buffer with 2% w/v BSA, 2% BSA Krebs buffer, read-out: Half-life (converted)): ~30 days
- half-life ([1]; bovine, Krebs-Henseleit buffer with 2% w/v BSA, read-out: Half life (t1/2) (converted)): 28.9 days
- half-life ([1]; protein-free Krebs-Henseleit buffer, Krebs-Henseleit buffer 0% BSA, first half life, t1/2=0.693/k, U = Undetectable, read-out: Half life (t1/2) (converted)): 5.66 days
- solubility [3]: 2 µg/mL and 8 µM
- Protein binding constant (K) [4]: 13978 L/mol
SMILES: CCCCCCCC(=O)Oc1ccccc1C(=O)O [Compound C8SA, n-octanoylsalicylic acid]
- Platelet Aggregation (% of control) ([2]; preincubation 3 minutes): 95.4 ± 2.1 % of control
- Platelet Aggregation (% of control) ([2]; preincubation 5 minutes): 92.4 ± 0.1 % of control
- Platelet Aggregation (% of control) ([2]; preincubation 8 minutes): 87.3 ± 3.3 % of control
- Platelet Aggregation (% of control) ([2]; preincubation 10 minutes): 67.5 ± 2.7 % of control
- Platelet Aggregation (% of control) ([2]; preincubation 12 minutes): 27.3 ± 0.2 % of control
- Platelet Aggregation (% of control) ([2]; preincubation 15 minutes): 0 % of control
- Platelet Aggregation (% of control) ([2]; preincubation 20 minutes): 0 % of control
- Platelet Aggregation (% of control) ([2]; preincubation 25 minutes): 0 % of control
- Platelet Aggregation (% of control) ([2]; preincubation 45 minutes): 0 % of control
